From patent publication US7018624B2, “Delivery of poly(ethylene glycol)-modified molecules from degradable hydrogels” (Debio Recherche Pharmaceutique S.A., priority 1996, dated 2006) come the findings set out here.

The series in a line: Hydrolysis kinetics of the ester linkages of mPEG-O-(CH2)n-COO-mPEG in buffer, followed by HPLC-GPC. In kind it is physicochemical. As to the method: To precisely measure the hydrolysis kinetics of the ester linkages, water-soluble, non-crosslinked mPEG-O—(CH2)n—COO-MPEG was synthesized as in Example 2. Hydrolysis was carried out in buffer solutions (0.1 M) at different pHs and temperatures, and followed by HPLC-GPC (Ultrahydrogel® 250, Waters).

Consider “mPEG-O-(CH2)n-COO-mPEG [CM ester linkage]”, for which the “Hydrolysis half lives of the ester” value is listed as greater than 150 days (pH 5.5) and 5 days (pH 8.1).
